For one series, the system named is NSCLC. The following applies: patients with NSCLC; clinical trials terminated; cited from earlier work.
A further series relates to ovarian cancer. The following applies: cited from earlier work.
The test system of series [1] is ovarian cancer cell line MCAS. Description: ADCC activity against pemetrexed-treated MCAS using healthy donor PBMCs (LDH release). The class given is cell-based, human. Particulars: for ADCC activity against MCAS cultured with pemetrexed versus cultured without pemetrexed: 20 nmol/L pemetrexed, P<0.05. The method, then:
(§1) These cells were adjusted at 1×10^4 cells/50 μL using ADCC measurement medium [phenol red-free RPMI1640 (GIBCO), 5% inactivated dFCS (GIBCO)] as target cell solutions.
(§2) Next, heparin-treated peripheral blood of a healthy donor was loaded into a LeucoSep lymphocyte separation tube (Greiner) filled with Lymphoprep (Cosmo Bio), and centrifuged at 1000×g for 20 minutes at room temperature.
(§3) After the centrifugation, the plasma fraction was removed, and the peripheral blood mononuclear cell (PBMC) layer was collected. Then, the cells were washed with the ADCC measurement medium. The PBMCs were adjusted at 2.5×10^5 cells/50 μL using the ADCC measurement medium as an effector cell solution.
HuRA15-7CTAcc antibody and MORAb-003 (farletuzumab) were used as anti-human FOLR1 humanized antibodies. The antibody solutions were prepared at 0.1, 1, 10, 100 and 1000 ng/mL with the ADCC measurement medium, so that the final concentrations of the assay became 0.033, 0.33, 3.3, 33 and 333 ng/mL.
(§4) Fifty μL of each the target cell solution, the effector cell solution, and the antibody solution, which were prepared as described above, were mixed in a U-bottom 96-well plate, so that the total volume of each well was 150 μL. After mixing the wells, the cells were precipitated by centrifugation at 50×g for five minutes at room temperature. These cells were reacted for four hours at 37° C.
(§5) After mixing the wells, the cells were precipitated again by centrifugation. Then, 50 μL of the supernatant of each well was dispensed to a new 96-well plate. The lactate dehydrogenase (LDH) activities of the dispensed supernatant solutions were measured using CytoTox 96 Non-Radioactive Cytotoxicity Assay (Promega) according to the instruction.
(§6) The ADCC activity was calculated by the following equation after subtracting the measured LDH activity value of the well containing the ADCC measurement medium only from the measured LDH activity value of all wells. These values were determined as the corrected LDH activity value of each well.
ADCC Activity (%)=100×(Exp−ET spo)/(T total−D−T spo) [Chem. 1]
Here, Exp is the corrected LDH activity value of a sample; ET spo is the corrected LDH activity value of the well in which the effector cell solution and the target cell solution were mixed; T total is the corrected LDH activity value of the well in which the target cells and the Lysis Solution attached to CytoTox 96 Non-Radioactive Cytotoxicity Assay were mixed; D is the corrected LDH activity value of the Lysis Solution; and T spo is the corrected LDH activity value of the well containing the target cells only.

Series [2] deals with NSCLC cell line NCI-H2228. Description: ADCC activity against pemetrexed-treated NCI-H2228 using healthy donor PBMCs (LDH release). The class given is cell-based, human. The following applies: for ADCC activity against NCI-H2228 cultured with pemetrexed versus cultured without pemetrexed: 1000 nmol/L pemetrexed, P<0.05. The method, then: as §1, §2, §3
HuRA15-7CTAcc antibody and MORAb-003 (farletuzumab) were used as anti-human FOLR1 humanized antibodies.
as §4, §5, §6
ADCC Activity (%)=100×(Exp−ET spo)/(T total−D−T spo) [Chem. 1] […]
The ADCC activity against the NSCLC cell line NCI-H2228 was evaluated by a similar method to that in Example 3 except for using pemetrexed at the final concentration of 0, 20 or 1000 nmol/L in the culture.
(LDH leaks from cells whose membrane has failed.)

Another series in a line: in vitro. The following applies: human, MCAS ovarian cancer cells.
For series [3], the system named is FOLR1 expression in NCI-H838. Description: Expression level of FOLR1 in NSCLC cell line after incubation with pemetrexed (flow cytometry, MFI). In kind it is cell-based, human. Particulars: NCI-H838, low folic acid medium, 0, 10 or 1000 nmol/L pemetrexed, 72 hours. The method, then: (§7) NSCLC cell lines such as NCI-H522 [American Type Culture Collection (hereinafter referred to as ATCC) No. CRL-5810], NCI-H838 (ATCC No. CRL-5844), NCI-H1437 (ATCC No. CRL-5872) and NCI-H2228 (ATCC No. CRL-5935) were cultured in a culture medium [RPMI1640 (GIBCO), 10% inactivated bovine serum (FCS, GIBCO)].
(§8) Next, cells were detached from culture flasks using TrypLE Express (GIBCO) and suspended in a folic acid-free medium [RPMI 1640 folate-free (GIBCO), 10% inactivated dialyzed FCS (dFCS, GIBCO)]. The cells were seeded to 25-cm^2 tissue culture (TC) flasks at 2.5×10^5 cells/4 mL.
(§9) After culturing each cell line under the above conditions, cells were detached using TrypLE Express, washed with phosphate buffer saline (PBS) and then suspended in FCM buffer (PBS containing 1 mmol/L EDTA, 0.05% sodium azide and 5% inactivated FCS).
(§10) Next, the cells were seeded in a 96-well plate at 1×10^5 cells per well and centrifuged at 1700 rpm for one minute. After removing the supernatant, an anti-human FOLR1 humanized antibody (HuRA15-7CTAcc antibody) (WO2014/087863) which was prepared at 10 μg/mL with FCM buffer was added to the cells and reacted for 30 minutes at 4° C.
(§11) After washing the cells, Anti-Human IgG-FITC (Jackson) which was diluted 100 times with the FCM buffer was added and reacted for 30 minutes at 4° C. After washing the cells again, the cells were suspended in the FCM buffer. The fluorescence intensities were analyzed with a flow cytometer (Beckman Coulter, Inc., FC500MPL) to determine the mean fluorescence intensity (MFI) of each cell.
(Flow cytometry measures light scatter and fluorescence of single cells or particles in a stream.)

Series [4] deals with FOLR1 expression in NCI-H2228. Described as above. In kind it is cell-based, human. Particulars: NCI-H2228, low folic acid medium, 72 hours. The method, then:
as §7, §8, §9, §10, §11

In series [5] the test system is FOLR1 expression in NCI-H1437. The description is as above. The following applies: NCI-H1437, low folic acid medium, 72 hours. In kind it is cell-based, human. As to the method: as §7, §8, §9, §10, §11
Series [6] has as its system FOLR1 expression in NCI-H522. The description is as above. The class given is cell-based, human. The following applies: NCI-H522, low folic acid medium, 0, 10 or 1000 nmol/L pemetrexed, 72 hours. As to the method: as §7, §8, §9, §10, §11
For series [7], the system named is FOLR1 expression in OVCAR-3. Description: Expression level of FOLR1 in ovarian cancer cell line after incubation with pemetrexed. The following applies: OVCAR-3 [FIG. 2(C)], low folic acid medium, regardless of the final pemetrexed concentration. In kind it is cell-based, human. As to the method: as §9, §10, §11
(§12) First, SKOV-3 [American Type Culture Collection (hereinafter referred to as ATCC) No. HTB-77], MCAS (JCRB cell No. JCRB0240), NIH:OVCAR-3 (ATCC No. HTB-161) and IGR-OV1 (National Cancer Institute), which are ovarian cancer-derived cell lines, were cultured in the culture medium.

The test system of a further series is FOLR1 expression in MCAS. Described as above. In kind it is cell-based, human. The method, then:
as §9, §10, §11, §12

For series [8], the system named is FOLR1 expression in SKOV-3. Described as above. The class given is cell-based, human. The method, then: as §9, §10, §11, §12
Series [9] has as its system FOLR1 expression in IGR-OV1. The description is as above. The class given is cell-based, human. As to the method: as §9, §10, §11, §12
Series [10] concerns FOLR1 expression in MES-SA. Description: Expression level of FOLR1 in endometrial cancer cell line after incubation with pemetrexed. The class given is cell-based, human. As to the method: (§13) Endometrial cancer-derived cell line MES-SA (ATCC No. CRL-1976) and HEC-1-A (ATCC No. HTB-112) were cultured in McCoy's 5A medium (ATCC) containing 10% FCS (GIBCO), and HEC-1-B (ATCC No. HTB-113) was cultured in Eagle's Minimum Essential Medium (ATCC) containing 10% FCS (GIBCO).
(§14) Also, a flow cytometer manufactured by Becton, Dickinson and Company (FACSVerse) was used instead of the flow cytometer manufactured by Beckman Coulter, Inc. (FC500MPL).

Series [11] deals with FOLR1 expression in HEC-1-A. Described as above. The class given is cell-based, human. As to the method:
as §13, §14

Series [12] deals with FOLR1 expression in HEC-1-B. Described as above. The class given is cell-based, human. As to the method: as §13, §14
[13] abbreviates: 1000 nmol/L pemetrexed in low folic acid medium.
The mark [14] stands for this setting: low folic acid medium, 0, 10 or 1000 nmol/L pemetrexed, 72 hours.

Description for in vitro: Then, detached cells were suspended in the folic acid-free medium, and the cells were seeded to 175-cm^2 TC flasks at 25×10^5 cells/28 mL. After 24-hour incubation, 14 mL of the 3× low folic acid medium was added, and the final folic acid concentration was adjusted at approximately 22.7 nmol/L. Then, pemetrexed was added to the culture at the final concentration of 0 or 20 nmol/L, and the cells were cultured for further 72 hours.
The cultured cells were detached from the culture flasks using 0.02% EDTA solution (Nacalai), and the cell counts and the viability were measured using Vi-CELL XR 2.01 (Beckman Coulter).

For the molecule “MORAb-003: existing anti-human FOLR1 humanized IgG1 antibody, sequences described in WO2005/080431”, the clinical benefit entry with NSCLC is on record as “did not show benefit”; in the series with ovarian cancer (patients with platinum-resistant ovarian cancer, clinical trials terminated), “did not show benefit”. In addition, the clinical response result with ovarian cancer (patients with platinum-sensitive recurrent ovarian cancer) was “responses in some patients”. In series [1] (healthy donor 2-derived PBMCs, antibody 0.33, 3.3, 33 and 333 ng/mL), the “ADCC activity against MCAS cultured with pemetrexed versus cultured without pemetrexed” value was “significantly higher”. In addition, in series [2] (antibody 0.0033, 3.3, 33 and 333 ng/mL), the “ADCC activity against NCI-H2228 cultured with pemetrexed versus cultured without pemetrexed” value is reported as “significantly higher”.

The viability is a read-out of living cells in per cent, often relative to untreated cells. A higher viability goes with better survival. Turning to `Nc1nc2[nH]cc(CCc3ccc(C(=O)N[C@@H](CCC(=O)O)C(=O)O)cc3)c2c(=O)[nH]1` [pemetrexed], the viability at 72 h, 20 nmol/L in the series “in vitro” turned out to be 96.6%. Besides, the “expression level of FOLR1, dependence on pemetrexed concentration” value in [3] was “higher concentration of pemetrexed induced higher expression level of FOLR1”; in series [6], “higher concentration of pemetrexed induced higher expression level of FOLR1”; in the series with FOLR1 expression in MCAS (low folic acid medium, 0, 10 or 1000 nmol/L pemetrexed), “higher concentration of pemetrexed induced higher expression level of FOLR1”; in series [8] (SKOV-3, low folic acid medium, 0, 10 or 1000 nmol/L pemetrexed), “higher concentration of pemetrexed induced higher expression level of FOLR1”; in series [9] (IGR-OV1, low folic acid medium, 0, 10 or 1000 nmol/L pemetrexed), “higher concentration of pemetrexed induced higher expression level of FOLR1”; in [10] (setting [14]), “higher pemetrexed treatment induced higher expression level of FOLR1”. In addition, the “expression level of FOLR1, dependence on pemetrexed concentration” value in series [11] (setting [14]) and in series [12] (setting [14]) was “higher pemetrexed treatment induced higher expression level of FOLR1” in each case. For the same molecule, the “expression level of FOLR1 relative to incubation with 0 nmol/L pemetrexed” value in series [4] (10 nmol/L pemetrexed) is “about 1.5 times”; in series [4] (1000 nmol/L pemetrexed) it was about 2 times; in series [5] (10 nmol/L pemetrexed), “about 1.5 times”; in series [5] (1000 nmol/L pemetrexed) it was about 2 times. Moreover, the “expression level of FOLR1 compared to incubation in the culture medium” value in series [7] is given as “did not increase”. Further, the “expression level of FOLR1 relative to incubation in the culture medium (NC)” value in the series with FOLR1 expression in MCAS (setting [13]) is listed as “about 7 times”; in [8] (SKOV-3, 1000 nmol/L pemetrexed in low folic acid medium) it was “about 2.5 times”; in [9] (IGR-OV1, 1000 nmol/L pemetrexed in low folic acid medium), “about 2.5 times”. Further, the “expression level of FOLR1 relative to culture in the culture medium (NC)” value in series [10] (setting [13]) is “approximately 3.5 times”; in [11] (setting [13]), “approximately 3 times”; in series [12] (setting [13]), “approximately 2 times”.

B1: HuRA15-7CTAcc: anti-human FOLR1 humanized antibody, VH SEQ ID NO: 8, VL SEQ ID NO: 9, expressed in FUT8 knocked out CHO/DG44 (WO2014/087863) (antibody, V domains shown)
VH: EVQLVESGGGLVQPGGSLRLSCAASGFTFTDFYMNWVRQPPGKAPEWLGFIRNKANGYTTEFNPSVKGRFTISRDNSKNSLYLQMNSLKTEDTATYYCARTLYGYAYYYVMDAWGQGTLVTVSS
VL: DIQMTQSPSSLSASLGDRVTITCRTSEDIFRNLAWYQQKPGKAPKLLIYDTNRLADGVPSRFSGSGSGTDYTLTISSLQPEDFATYFCQQYDNYPLTFGQGTKLEIK
modifications: afucosylated; nonS_HuRA15-7CTVH_AA; nonS_HuRA15-7LV3_AA
B1: the “ADCC activity against MCAS cultured with pemetrexed versus cultured without pemetrexed” value was “significantly higher” in series [1] (healthy donor 1-derived PBMCs, all the antibody concentrations); “significantly higher” in [1] (healthy donor 2-derived PBMCs, antibody 0.033 and 0.33 ng/mL). Besides, the “ADCC activity, dependence on antibody concentration” value in series [1] (MCAS, PBMCs of two healthy donors, antibody 0.033-333 ng/mL) was “cytotoxicity was observed in association with the antibody concentration”; in series [2] (NCI-H2228, PBMCs of a healthy donor), “cytotoxicity was observed in association with the antibody concentration”. Moreover, the “ADCC activity against NCI-H2228 cultured with pemetrexed versus cultured without pemetrexed” value in series [2] (all the antibody concentrations) is listed as “significantly higher”.

These data come from US20170247449A1, “THERAPEUTIC METHOD AND MEDICAMENT FOR CANCER PATIENTS BY FOLR1-TARGETING DRUG AND AN ANTAGONIST FOR FOLIC ACID METABOLISM” (KYOWA HAKKO KIRIN CO., LTD, priority 2014, published 2017).
